# Measurements reported in US20060094071A1 (priority 2002, published 2006).
# Where no end group is shown, it is not given here. The star is where a group is joined. Propionyl = CCC(=O)*
# Columns and labels:
# PrP^Sc [1] = molecular target: T1, PrP^Sc (Bos taurus, UniProt P10279); assay type: binding, cattle
# PrP^Sc [2] = test system: PrP^Sc
# PrP^Sc [3] = molecular target: T1, PrP^Sc; assay type: binding, cattle; details: pH 3
Substance,PrP^Sc binding efficiency (relative) (PrP^Sc [1]),"Extinction at 450 nm, BSE-positive versus BSE-negative animals (PrP^Sc [2])",Elution efficiency (PrP^Sc [3])
Propionyl-DArg-DArg-DA1a-DPhe-DPhe-DVal-amide [Peptide 7],76.5%,,
Leu-Pro-Phe-Phe-Asp (LPFFD; beta-sheet binding peptide) [Peptide 3],46.6%,,
Propionyl-RIIGL [Peptide 5],58.1%,,
Gly-Val-Val-Ile-Ala [Peptide 6],64.5%,,
Arg-Val-Val-Ile-Ala [Peptide 1],54.7%,,
Lys-Leu-Val-Phe-Phe [Peptide 2],100.0%,significantly (t-test) raised,remained almost completely bound
Propionyl-IIGL [Peptide 4],55.1%,,
